# Where two headings read alike, the source gives them in different places.
# Legend:
# [1] = biological target: T1, CFTR-mediated chloride transport in human intestinal epithelial enteroid cells (Homo sapiens, UniProt P13569); assay: Membrane potential dye, Enteroid Assay B; assay type: cell-based; settings: for Ent. B Max Activity (%): % of chloride transport of triple combination control (1 μM (14S)-8-[3-(2-{Dispiro[2.0.2.1]heptan-7-yl}ethoxy)-1H-pyrazol-1-yl]-12,12-dimethyl-... macrocycle, 3 μM tezacaftor, 300 nM acute ivacaftor); for EC50: enteroid cells, 18-24 hours incubation, acute 10 μM forskolin and 300 nM ivacaftor, read-out: Ent. B EC50
# T1 sequence (P13569 with tags, fused parts or gaps DEL508-508): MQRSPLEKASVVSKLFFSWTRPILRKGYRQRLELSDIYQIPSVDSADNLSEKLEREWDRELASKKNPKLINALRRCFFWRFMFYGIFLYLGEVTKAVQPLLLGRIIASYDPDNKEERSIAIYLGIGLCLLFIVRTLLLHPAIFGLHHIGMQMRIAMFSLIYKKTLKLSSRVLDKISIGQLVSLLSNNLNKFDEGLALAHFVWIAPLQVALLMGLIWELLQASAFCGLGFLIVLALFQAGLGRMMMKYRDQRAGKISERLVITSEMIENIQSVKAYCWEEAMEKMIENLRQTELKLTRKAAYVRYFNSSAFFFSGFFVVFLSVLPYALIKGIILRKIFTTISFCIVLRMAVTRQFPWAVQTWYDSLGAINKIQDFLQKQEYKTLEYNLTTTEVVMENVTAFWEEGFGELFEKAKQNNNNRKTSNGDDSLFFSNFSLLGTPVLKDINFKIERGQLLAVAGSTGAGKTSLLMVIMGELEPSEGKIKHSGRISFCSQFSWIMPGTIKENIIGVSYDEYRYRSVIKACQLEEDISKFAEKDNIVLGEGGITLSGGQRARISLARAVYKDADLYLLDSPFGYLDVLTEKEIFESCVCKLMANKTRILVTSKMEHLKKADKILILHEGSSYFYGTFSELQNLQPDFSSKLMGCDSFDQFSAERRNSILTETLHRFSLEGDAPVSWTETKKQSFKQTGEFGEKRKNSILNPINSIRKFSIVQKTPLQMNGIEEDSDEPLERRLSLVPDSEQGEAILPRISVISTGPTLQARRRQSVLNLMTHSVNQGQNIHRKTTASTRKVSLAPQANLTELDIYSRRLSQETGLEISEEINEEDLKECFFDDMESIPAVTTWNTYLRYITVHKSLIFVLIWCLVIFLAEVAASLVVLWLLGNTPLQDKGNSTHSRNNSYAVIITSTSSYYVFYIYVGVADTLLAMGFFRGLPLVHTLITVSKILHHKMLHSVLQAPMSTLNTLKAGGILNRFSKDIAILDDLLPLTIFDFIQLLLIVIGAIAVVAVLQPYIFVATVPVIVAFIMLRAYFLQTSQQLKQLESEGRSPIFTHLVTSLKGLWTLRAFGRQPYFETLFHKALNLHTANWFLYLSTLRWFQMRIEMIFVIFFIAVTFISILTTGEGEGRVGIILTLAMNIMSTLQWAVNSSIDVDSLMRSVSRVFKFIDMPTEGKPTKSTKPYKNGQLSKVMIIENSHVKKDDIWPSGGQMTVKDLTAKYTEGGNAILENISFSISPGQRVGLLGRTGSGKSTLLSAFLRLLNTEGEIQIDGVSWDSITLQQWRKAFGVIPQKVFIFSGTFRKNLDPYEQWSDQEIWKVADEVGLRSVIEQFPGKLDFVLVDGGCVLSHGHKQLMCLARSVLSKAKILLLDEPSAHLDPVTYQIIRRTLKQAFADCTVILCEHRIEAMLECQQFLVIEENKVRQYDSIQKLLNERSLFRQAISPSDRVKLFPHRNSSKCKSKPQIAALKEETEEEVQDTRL
# Description: Base medium (ADF+++) consisted of Advanced DMEM/Ham's F12, 2 mM Glutamax, 10 mM HEPES, […] penicillin/streptomycin.
# Intestinal enteroid maintenance medium (IEMM) consisted of ADF+++, 1×B27 supplement, 1×N2 supplement, 1.25 mM N-acetyl cysteine, 10 mM Nicotinamide, 50 ng/mL hEGF, 10 nM Gastrin, 1 μg/mL hR-spondin-1, 100 ng/mL hNoggin, TGF-b type 1 inhibitor A-83-01, 100 μg/mL Primocin, 10 μM P38 MAPK inhibitor SB202190.
# Bath 1 Buffer consisted of 1 mM MgCl2, 160 mM NaCl, 4.5 mM KCl, 10 mM HEPES, 10 mM Glucose, 2 mM CaCl2.
# Chloride Free Buffer consisted of 1 mM Magnesium Gluconate, 2 mM Calcium Gluconate, 4.5 mM Potassium Gluconate, 160 mM Sodium Gluconate, 10 mM HEPES, 10 mM Glucose.
# Bath1 Dye Solution consisted of Bath 1 Buffer, 0.04% Pluronic F127, 20 μM Methyl Oxonol, 30 μM CaCCinh-A01, 30 μM Chicago Sky Blue.
# Chloride Free Dye Solution consisted of Chloride Free Buffer, 0.04% Pluronic F127, 20 μM Methyl Oxonol, 30 μM CaCCinh-A01, 30 μM Chicago Sky Blue.
# Chloride Free Dye Stimulation Solution consisted of Chloride Free Dye Solution, 10 μM forskolin, 100 μM IBMX, and 300 nM Compound III.
# Human intestinal epithelial enteroid cells were obtained from the Hubrecht Institute for Developmental Biology and Stem Cell Research, Utrecht, The Netherlands and expanded in T-Flasks as previously described (Dekkers J F, Wiegerinck C L, de Jonge H R, Bronsveld I, Janssens H M, de Winter-de Groot K M, Brandsma A M, de Jong N W M, Bijvelds M J C, Scholte B J, Nieuwenhuis E E S, van den Brink S, Clevers H, van der Ent C K, Middendorp S and M Beekman J M. A functional CFTR assay using primary cystic fibrosis intestinal organoids. Nat Med. 2013 July; 19(7):939-45).
# c. Enteroid Cell Harvesting and Seeding
# Cells were recovered in cell recovery solution, collected by centrifugation at 650 rpm for 5 minutes at 4° C., resuspended in TrypLE and incubated for 5 minutes at 37° C. Cells were then collected by centrifugation at 650 rpm for 5 minutes at 4° C. and resuspended in IEMM containing 10 μM ROCK inhibitor (RI). The cell suspension was passed through a 40 μm cell strainer and resuspended at 1×10^6 cells/mL in IEMM containing 10 μM RI. Cells were seeded at 5000 cells/well into multi-well plates and incubated for overnight at 37° C., 95% humidity and 5% CO2 prior to assay.
# e. Membrane Potential Dye, Enteroid Assay B
# Enteroid cells were incubated with test compound in IEMM for 18-24 hours at 37° C., 95% humidity and 5% CO2. […] Briefly, cells were washed 5 times in Bath 1 Buffer. Bath 1 Dye Solution was added and the cells were incubated for 25 minutes at room temperature. Following dye incubation, cells were washed 3 times in Chloride Free Dye Solution. Chloride transport was initiated by addition of Chloride Free Dye Stimulation Solution and the fluorescence signal was read for 15 minutes. […] Chloride transport was then expressed as a percentage of the chloride transport following treatment with 1 μM (14S)-8-[3-(2-{Dispiro[2.0.2.1]heptan-7-yl}ethoxy)-1H-pyrazol-1-yl]-12,12-dimethyl-2λ^6-thia-3,9,11,18,23-pentaazatetracyclo[17.3.1.111,14.05,10]tetracosa-1(22),5,7,9,19(23),20-hexaene-2,2,4-trione, 3 μM (R)-1-(2,2-difluorobenzo[d][1,3]dioxol-5-yl)-N-(1-(2,3-dihydroxypropyl)-6-fluoro-2-(1-hydroxy-2-methylpropan-2-yl)-1H-indol-5-yl)cyclopropanecarboxamide and 300 nM acute N-[2,4-bis(1,1-dimethylethyl)-5-hydroxyphenyl]-1,4-dihydro-4-oxoquinoline-3-carboxamide triple combination control (% Activity).
# F508del in NIH 3T3 cells = biological target: T2, F508del in NIH 3T3 cells (Homo sapiens, UniProt P13569, DEL508-508); assay: 3T3 assay: membrane potential optical assay for F508del correction; assay type: cell-based, mouse; settings: for EC50: F508del NIH 3T3 cells, compound incubation 18-24 hours at 37° C., forskolin activation, read-out: 3T3 EC50; for Emax: NIH3T3, F508del NIH 3T3 cells, efficacy compared to lumacaftor in combination with acutely added 300 nM Ivacaftor, read-out: 3T3 Max Activity (%)
# T2 construct: expressed in transfected cells
# T2 sequence (P13569 with tags, fused parts or gaps DEL508-508): as above
# Outline: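 NIH3T3 mouse fibroblasts stably expressing F508del incubated with corrector compounds at a range of concentrations for 16-24 h at 37 °C, then loaded with voltage-sensing redistribution dye. Single addition of forskolin with Cl− gradient (chloride-free gluconate bath vs. NaCl bath, pH 7.4); membrane potential change read by fluorescence on FLIPR.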
# [2] = biological target: T1, CFTR-mediated chloride transport in human intestinal epithelial enteroid cells; assay: Membrane potential dye, Enteroid Assay A; assay type: cell-based; settings: for Ent. A Max Activity (%): % of chloride transport of triple combination control (3 μM N-[(6-amino-2-pyridyl)sulfonyl]-6-(3-fluoro-5-isobutoxy-phenyl)-2-[(4S)-2,2,4-trimethylpyrrolidin-1-yl]pyridine-3-carboxamide, 3 μM tezacaftor, 300 nM acute ivacaftor); for EC50: enteroid cells, 18-24 hours incubation, acute 10 μM forskolin and 300 nM ivacaftor, read-out: Ent. A EC50
# Outline: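 Enteroids seeded at 5000 cells/well were exposed to test compound in IEMM for 18-24 h at 37 °C, then loaded with methyl oxonol membrane potential dye. Chloride transport was triggered in chloride-free buffer with 10 μM forskolin, 100 μM IBMX and 300 nM Compound III, read by fluorescence for 15 min and expressed as % of a triple-combination control.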
# [3] = amide bond; 14-membered ring; HATU/DIEA; DMF; 3 steps
# CFTR = CFTR (Homo sapiens, UniProt P13569); assay: standard Ussing Chamber Assay for CFTR potentiator activity; assay type: cell-based
# CFTR, sequence (P13569 whole entry, species assumed): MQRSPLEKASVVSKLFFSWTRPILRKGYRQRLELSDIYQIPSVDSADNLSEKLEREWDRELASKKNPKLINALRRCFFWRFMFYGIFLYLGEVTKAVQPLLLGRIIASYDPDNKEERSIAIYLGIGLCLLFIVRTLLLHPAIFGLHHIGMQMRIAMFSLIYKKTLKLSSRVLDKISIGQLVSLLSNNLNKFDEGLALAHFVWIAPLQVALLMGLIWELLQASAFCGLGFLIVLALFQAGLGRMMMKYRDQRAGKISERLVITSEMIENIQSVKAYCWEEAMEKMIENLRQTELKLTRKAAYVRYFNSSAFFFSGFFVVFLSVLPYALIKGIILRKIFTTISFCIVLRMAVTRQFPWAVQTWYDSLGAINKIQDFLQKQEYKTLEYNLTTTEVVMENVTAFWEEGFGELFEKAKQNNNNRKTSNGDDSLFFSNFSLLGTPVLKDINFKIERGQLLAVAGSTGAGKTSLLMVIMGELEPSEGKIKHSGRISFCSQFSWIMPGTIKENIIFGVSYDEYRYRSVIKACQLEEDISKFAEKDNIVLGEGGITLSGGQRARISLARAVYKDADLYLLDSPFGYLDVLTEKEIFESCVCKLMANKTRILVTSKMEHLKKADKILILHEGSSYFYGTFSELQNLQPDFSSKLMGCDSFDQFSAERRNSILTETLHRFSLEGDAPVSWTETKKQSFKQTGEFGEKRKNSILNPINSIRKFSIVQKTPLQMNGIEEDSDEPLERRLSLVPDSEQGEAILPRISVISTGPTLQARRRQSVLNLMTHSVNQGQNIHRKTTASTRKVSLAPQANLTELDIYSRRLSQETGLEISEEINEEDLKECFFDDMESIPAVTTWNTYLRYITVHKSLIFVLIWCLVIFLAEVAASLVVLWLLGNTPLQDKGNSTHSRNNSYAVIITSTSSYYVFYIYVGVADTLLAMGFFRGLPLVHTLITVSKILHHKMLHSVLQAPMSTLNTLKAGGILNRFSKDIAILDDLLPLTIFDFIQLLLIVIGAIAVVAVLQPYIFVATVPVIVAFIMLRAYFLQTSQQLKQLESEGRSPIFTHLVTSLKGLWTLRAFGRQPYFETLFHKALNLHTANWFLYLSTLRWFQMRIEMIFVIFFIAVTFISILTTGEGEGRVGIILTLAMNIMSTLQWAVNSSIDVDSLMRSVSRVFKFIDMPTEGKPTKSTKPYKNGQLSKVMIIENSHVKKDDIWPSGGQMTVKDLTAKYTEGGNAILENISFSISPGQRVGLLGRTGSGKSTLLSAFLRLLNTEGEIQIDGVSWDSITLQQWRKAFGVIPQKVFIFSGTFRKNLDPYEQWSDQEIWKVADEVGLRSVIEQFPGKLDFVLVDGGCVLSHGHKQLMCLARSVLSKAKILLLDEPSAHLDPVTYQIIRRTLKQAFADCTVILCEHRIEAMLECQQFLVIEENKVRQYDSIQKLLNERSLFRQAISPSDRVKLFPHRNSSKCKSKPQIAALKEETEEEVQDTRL
# Description: tert-Butyl N-[(6R,12R)-6-benzyloxy-12-methyl-6,15-bis(trifluoromethyl)-13,19-dioxa-3,4,18-triazatricyclo[12.3.1.12,5]nonadeca-1(18),2,4,14,16-pentaen-17-yl]-N-tert-butoxycarbonyl-carbamate (8.6 g, 11.77 mmol) was dissolved in ethanol (172 mL) then the flask was cycled 3 times between vacuum/nitrogen. Treated the mixture with 10% Pd/C (50% water wet, 1.8 g of 5% w/w, 0.8457 mmol) then cycled 3 times between vacuum/nitrogen and 3 times between vacuum/hydrogen and then stirred vigorously under hydrogen (balloon) at room temperature for 18 hours. The mixture was cycled 3 times between vacuum/nitrogen, filtered over Celite, washing with ethanol, and then the filtrate was evaporated to give 7.3 g of tert-butyl N-tert-butoxycarbonyl-N-[(6R,12R)-6-hydroxy-12-methyl-6,15-bis(trifluoromethyl)-13,19-dioxa-3,4,18-triazatricyclo[12.3.1.12,5]nonadeca-1(18),2,4,14,16-pentaen-17-yl]carbamate an off-white solid. 1H NMR and MS confirmed the expected product. CFTR modulatory activity was confirmed using a standard Ussing Chamber Assay for CFTR potentiator activity.
EC50 (F508del in NIH 3T3 cells),Emax (F508del in NIH 3T3 cells),EC50 [2],Structure (SMILES),Ent. A Max Activity (%) [2],also measured
–,–,–,Cc1cccc(C)c1-c1cc2nc(n1)NS(=O)(=O)c1cccc(c1)OCCCO2 [Compound 122],–,Ent. B Max Activity (%) [1]: + (+ is <30%); EC50 [1]: 3 to 30 µM
< 1 µM,> 60%,1 to 3 µM,"Cc1cccc(C)c1-c1cc2nc(n1)NS(=O)(=O)c1cccc(c1)NC(=O)CCCc1cccc(c1)O2 [Compound 65, 5-(2,6-Dimethylphenyl)-9,9-dioxo-2-oxa-9λ^6-thia-6,8,15,26-tetraazatetracyclo[18.3.1.13,7.110,14]hexacosa-1(23),3,5,7(26),10(25),11,13,20(24),21-nonaen-16-one]",+++ (+++ is >60%),"ring closure, yield after HPLC (from Cc1cccc(C)c1-c1cc(Oc2cccc(CCCC(=O)O)c2)nc(NS(=O)(=O)c2cccc(N)c2)n1, amide bond, 17-membered ring, HATU/DIEA, DMF, 56.8 mM, 0.033 h): 28%"
< 1 µM,> 60%,1 to 3 µM,"Cc1ccc2cc1Oc1cc(-c3c(C)cccc3C)nc(n1)NS(=O)(=O)c1cccc(c1)NC(=O)CC2 [Compound 66, 5-(2,6-Dimethylphenyl)-22-methyl-9,9-dioxo-2-oxa-9λ^6-thia-6,8,15,25-tetraazatetracyclo[17.3.1.13,7.110,14]pentacosa-1(22),3,5,7(25),10(24),11,13,19(23),20-nonaen-16-one]",+++ (+++ is >60%),"ring closure, yield after HPLC (amide bond, 16-membered ring, none (thermal, isolated OPfp ester), NMP, 67.6 mM, 100.0 °C, 4 steps): 6%"
< 1 µM,> 60%,1 to 3 µM,"Cc1cccc(C)c1-c1cc2nc(n1)NS(=O)(=O)c1cccc(c1)NC(=O)c1cc(ccc1Cl)O2 [Compound 55, 18-chloro-5-(2,6-dimethylphenyl)-9,9-dioxo-2-oxa-9λ^6-thia-6,8,15,23-tetraazatetracyclo[15.3.1.13,7.110,14]tricosa-1(21),3,5,7(23),10(22),11,13,17,19-nonaen-16-one]",+++ (+++ is >60%),"ring closure, yield after HPLC (from Cc1cccc(C)c1-c1cc(Oc2ccc(Cl)c(C(=O)O)c2)nc(NS(=O)(=O)c2cccc(N)c2)n1, amide bond, 14-membered ring, HATU/DIEA, 1.0 h): 38%"
–,–,–,Cc1cccc(C)c1-c1cc2nc(n1)NS(=O)(=O)c1cccc(c1)OC(c1ccccc1)CCO2 (stereo not shown) [Compound 121],–,Ent. B Max Activity (%) [1]: +++ (+++ is >60%); EC50 [1]: < 1 µM
< 1 µM,> 60%,3 to 30 µM,"Cc1cccc(C)c1-c1cc2cc(n1)NS(=O)(=O)c1cccc(c1)NC(=O)c1cccc(c1)O2 [Compound 77, 5-(2,6-Dimethylphenyl)-9,9-dioxo-2-oxa-9λ^6-thia-6,8,15-triazatetracyclo[15.3.1.13,7.110,14]tricosa-1(20),3,5,7(23),10(22),11,13,17(21),18-nonaen-16-one]",++ (++ is 30-60%),"ring closure, yield after HPLC (amide bond, 14-membered ring, HATU/DIEA, DMF, 130.0 mM): 60%"
–,–,–,Cc1cccc(C)c1-c1cc2nc(n1)NS(=O)(=O)c1cccc(c1)NC(=O)c1cccc(c1C)O2,–,"ring closure, isolated yield [3]: 33%"
–,–,–,Cc1cccc(C)c1-c1cc2nc(n1)NS(=O)(=O)c1cccc(c1)OC(Cc1ccccc1)CCO2 (stereo not shown) [Compound 120],–,Ent. B Max Activity (%) [1]: ++ (++ is 30-60%); EC50 [1]: < 1 µM
–,–,–,"Cc1cccc(C)c1-c1cc2nc(n1)NS(=O)(=O)c1cccc(c1)COC1CC(CN(C(=O)OC(C)(C)C)C1)O2 (stereo not shown) [Compound 119, tert-Butyl 19-(2,6-dimethylphenyl)-15,15-dioxo-2,8-dioxa-15λ^6-thia-5,16,18,21-tetraazatetracyclo[15.3.1.13,7.110,14]tricosa-1(21),10,12,14(22),17,19-hexaene-5-carboxylate]",+ (+ is <30%),"ring closure, yield after HPLC (from tert-butyl 3,5-dihydroxypiperidine-1-carboxylate + 3-(bromomethyl)-N-[4-chloro-6-(2,6-dimethylphenyl)pyrimidin-2-yl]benzenesulfonamide?, snar bond, 14-membered ring, NaH, DMF, 50.0 mM, 2 steps): 15%"
–,–,–,Cc1cccc(C)c1-c1cc2nc(n1)NS(=O)(=O)c1cccc(c1)NC(=O)c1cc(ccc1Br)O2,–,"ring closure, isolated yield [3]: 20%"
–,–,< 1 µM,"Cc1cccc(C)c1-c1cc2nc(n1)NS(=O)(=O)c1cncc(c1)NC(=O)C1CC(CN(C(=O)OC(C)(C)C)C1)O2 (racemic) [Compound 14, tert-Butyl 19-(2,6-dimethylphenyl)-8,15,15-trioxo-2-oxa-15λ^6-thia-5,9,12,16,18,21-hexaazatetracyclo[15.3.1.13,7.110,14]tricosa-1(21),10,12,14(22),17,19-hexaene-5-carboxylate]",+ (+ is <30%),"ring closure, yield after HPLC (from Cc1cccc(C)c1-c1cc(OC2CC(C(=O)Oc3c(F)c(F)c(F)c(F)c3F)CN(C(=O)OC(C)(C)C)C2)nc(NS(=O)(=O)c2cncc(N)c2)n1, amide bond, 14-membered ring, none (thermal, OPfp ester), NMP, 12.1 mM, 140.0 °C, 5.0 h, 5 steps): 1%"
–,–,–,"C[C@@H]1CCCCC[C@](O)(C(F)(F)F)C2=NN=C(O2)c2nc(c(C(F)(F)F)cc2N)O1 [(6R,12R)-17-amino-12-methyl-6,15-bis(trifluoromethyl)-13,19-dioxa-3,4,18-triazatricyclo[12.3.1.12,5]nonadeca-1(18),2,4,14,16-pentaen-6-ol]",–,CFTR modulatory activity (CFTR): confirmed
